Data: ChEMBL document CHEMBL1201862, “PubChem BioAssay data set” (2004)
Calls of active or inactive are those of the source.

Key:
[1] = molecular target: SWI/SNF-related matrix-associated actin-dependent regulator of chromatin subfamily A member 2 (Homo sapiens, UniProt P51531); test: Luminescence-based cell-based high throughput dose response assay to identify activators of the function of SWI/SNF related, matrix associated, actin dependent regulator of chromatin, subfamily a, member 2 (SMARCA2, BRM).; assay type: functional
SWI/SNF-related matrix-associated actin-dependent regulator of chromatin subfamily A member 2, sequence (P51531 whole entry): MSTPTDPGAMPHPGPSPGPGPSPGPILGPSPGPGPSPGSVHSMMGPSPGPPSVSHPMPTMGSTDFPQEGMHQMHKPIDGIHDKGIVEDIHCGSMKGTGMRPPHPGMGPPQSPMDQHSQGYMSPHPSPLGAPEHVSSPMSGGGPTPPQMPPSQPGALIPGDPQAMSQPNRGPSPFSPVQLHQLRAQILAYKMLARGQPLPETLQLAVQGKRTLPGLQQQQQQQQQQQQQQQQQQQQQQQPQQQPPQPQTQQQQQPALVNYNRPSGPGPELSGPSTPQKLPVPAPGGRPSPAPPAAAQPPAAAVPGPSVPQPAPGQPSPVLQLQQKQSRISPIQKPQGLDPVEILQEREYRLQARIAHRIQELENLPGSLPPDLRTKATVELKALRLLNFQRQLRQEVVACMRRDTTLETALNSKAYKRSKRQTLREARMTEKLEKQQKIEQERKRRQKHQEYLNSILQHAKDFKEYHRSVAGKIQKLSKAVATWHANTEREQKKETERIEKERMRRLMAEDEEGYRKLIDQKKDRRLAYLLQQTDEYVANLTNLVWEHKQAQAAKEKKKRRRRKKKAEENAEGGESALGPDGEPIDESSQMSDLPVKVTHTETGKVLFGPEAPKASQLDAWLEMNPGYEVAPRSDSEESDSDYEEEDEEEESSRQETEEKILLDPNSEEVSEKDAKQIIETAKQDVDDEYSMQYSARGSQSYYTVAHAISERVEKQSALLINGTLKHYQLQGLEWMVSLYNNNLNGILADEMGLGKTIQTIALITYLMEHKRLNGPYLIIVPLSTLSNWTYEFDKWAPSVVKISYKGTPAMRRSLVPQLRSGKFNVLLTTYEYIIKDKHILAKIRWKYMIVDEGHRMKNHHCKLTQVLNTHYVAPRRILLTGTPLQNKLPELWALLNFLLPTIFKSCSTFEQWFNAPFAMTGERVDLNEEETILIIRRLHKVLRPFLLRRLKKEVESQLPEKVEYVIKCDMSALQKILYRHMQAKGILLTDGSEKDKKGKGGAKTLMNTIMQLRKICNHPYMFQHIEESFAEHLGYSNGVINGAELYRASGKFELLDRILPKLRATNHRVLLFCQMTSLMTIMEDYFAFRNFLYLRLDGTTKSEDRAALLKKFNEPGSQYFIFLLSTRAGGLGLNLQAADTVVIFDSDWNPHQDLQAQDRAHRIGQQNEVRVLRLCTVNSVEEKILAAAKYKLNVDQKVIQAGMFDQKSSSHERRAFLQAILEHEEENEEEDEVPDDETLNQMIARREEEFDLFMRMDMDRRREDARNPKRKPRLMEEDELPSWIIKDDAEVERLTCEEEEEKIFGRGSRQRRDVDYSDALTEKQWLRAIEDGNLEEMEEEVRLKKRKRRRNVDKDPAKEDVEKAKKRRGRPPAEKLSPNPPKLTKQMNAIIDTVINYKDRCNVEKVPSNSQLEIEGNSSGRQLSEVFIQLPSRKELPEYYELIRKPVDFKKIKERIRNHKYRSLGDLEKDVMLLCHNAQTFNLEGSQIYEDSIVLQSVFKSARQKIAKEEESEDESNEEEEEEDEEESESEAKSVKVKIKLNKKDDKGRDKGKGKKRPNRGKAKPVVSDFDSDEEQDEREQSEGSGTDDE

[2] = Counterscreen for activators of the function of SWI/SNF related, matrix associated, actin dependent regulator of chromatin, subfamily a, member 2 (SMARCA2, BRM): Luminescence-based cell-based high throughput dose response assay to identify non-selective compounds using the VP16 reporter assay.; assay type: functional
[3] = molecular target: Tyrosyl-DNA phosphodiesterase 2 (Homo sapiens, UniProt O95551); test: human TDP2 enzyme inhibitors, dose response, biochemical, epi absorbance, IC50 (AID 743297)
[4] = molecular target: Long-chain-fatty-acid--AMP ligase FadD28 (Mycobacterium tuberculosis, UniProt P9WQ59); test: Fluorescence polarization aasay to screen for inhibitors that compete for the binding of FadD28 to a bisubstrate Measured in Biochemical System Using Plate Reader - 2147-01_Inhibitor_Dose_CherryPick_Activity.; assay type: functional, Mycobacterium tuberculosis H37Rv
Long-chain-fatty-acid--AMP ligase FadD28, sequence (P9WQ59 whole entry): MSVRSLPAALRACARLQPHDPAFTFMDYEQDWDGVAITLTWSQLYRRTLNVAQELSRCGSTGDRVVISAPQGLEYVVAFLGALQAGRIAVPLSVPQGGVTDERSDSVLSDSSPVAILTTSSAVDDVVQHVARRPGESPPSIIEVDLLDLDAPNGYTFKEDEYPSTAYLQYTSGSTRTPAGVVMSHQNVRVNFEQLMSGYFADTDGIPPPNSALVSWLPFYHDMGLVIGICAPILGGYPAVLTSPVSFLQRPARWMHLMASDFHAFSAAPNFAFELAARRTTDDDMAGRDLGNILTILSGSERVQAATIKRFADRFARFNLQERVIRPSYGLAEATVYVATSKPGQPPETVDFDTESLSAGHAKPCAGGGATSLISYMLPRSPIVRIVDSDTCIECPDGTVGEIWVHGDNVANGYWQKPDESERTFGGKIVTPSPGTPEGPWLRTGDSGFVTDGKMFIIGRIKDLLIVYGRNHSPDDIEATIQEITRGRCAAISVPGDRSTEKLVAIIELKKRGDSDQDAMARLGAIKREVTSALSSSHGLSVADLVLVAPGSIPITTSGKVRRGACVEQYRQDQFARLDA

[5] = molecular target: Fructose-bisphosphate aldolase (Mycobacterium tuberculosis, UniProt P9WQA3); test: Fluorescence-based biochemical high throughput dose response assay for inhibitors of the fructose-bisphosphate aldolase (FBA) of M. tuberculosis.; assay type: functional
Fructose-bisphosphate aldolase, sequence (P9WQA3 whole entry): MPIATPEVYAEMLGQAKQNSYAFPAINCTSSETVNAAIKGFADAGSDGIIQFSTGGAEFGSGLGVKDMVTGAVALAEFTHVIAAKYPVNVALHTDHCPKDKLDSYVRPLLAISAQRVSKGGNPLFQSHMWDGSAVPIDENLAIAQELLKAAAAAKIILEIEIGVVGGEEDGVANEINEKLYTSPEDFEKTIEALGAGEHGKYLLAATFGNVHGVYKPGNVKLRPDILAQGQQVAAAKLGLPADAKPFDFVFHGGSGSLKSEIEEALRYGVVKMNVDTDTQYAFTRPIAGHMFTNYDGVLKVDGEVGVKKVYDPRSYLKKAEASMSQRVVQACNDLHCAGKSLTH

[6] = microbe, parasite or virus in culture; assay type: functional; conditions: Mycobacterium tuberculosis
[7] = Fluorescence-based cell-based high throughput dose response assay for inhibitors of the interaction of nucleotide-binding oligomerization domain containing 2 (NOD2) and the receptor-interacting serine-threonine kinase 2 (RIPK2).; assay type: functional; conditions: Homo sapiens
Beta Lactamase = Beta Lactamase (Pseudomonas aeruginosa, UniProt Q932Y6); test: beta-lactamase reporter inhibitor potency, dose response, artefact control for NOD2-RIPK2 interaction inhibitor project, BLA reporter cells, FRET fluorescence (AID 651552); assay type: functional, cell-based
[8] = HEK293T cytotoxicity, dose response, cytotoxicity control for miR-122 modulator project, cell-based, inhibitor set, cherry-pick, set 2 (AID 720697); assay type: functional
Galanin receptor type 3 = Galanin receptor type 3 (Homo sapiens, UniProt O60755); test: Fluorescence-based cell-based primary high throughput dose response assay to identify antagonists of the Galanin Receptor 3 (GalR3).; assay type: functional
Galanin receptor type 3, sequence (O60755 whole entry): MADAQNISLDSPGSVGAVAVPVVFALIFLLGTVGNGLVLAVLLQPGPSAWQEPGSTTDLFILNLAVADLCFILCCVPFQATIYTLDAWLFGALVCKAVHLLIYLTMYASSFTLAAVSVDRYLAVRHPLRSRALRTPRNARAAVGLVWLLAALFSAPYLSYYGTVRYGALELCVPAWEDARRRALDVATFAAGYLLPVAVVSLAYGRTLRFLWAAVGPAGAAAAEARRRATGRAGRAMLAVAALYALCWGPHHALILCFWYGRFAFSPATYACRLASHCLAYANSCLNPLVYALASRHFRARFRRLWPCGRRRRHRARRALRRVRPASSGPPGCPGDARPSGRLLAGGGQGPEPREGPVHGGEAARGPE

cells = assay type: functional, cell-based; conditions: HEK-CNG
[9] = molecular target: Adenosylmethionine-8-amino-7-oxononanoate aminotransferase (Mycobacterium tuberculosis, UniProt P9WQ81); test: Mycobacterium tuberculosis BioA enzyme inhibitor Measured in Biochemical System Using Plate Reader - 2163-02_Inhibitor_Dose_CherryPick_Activity.; assay type: functional, Mycobacterium tuberculosis UT205
Adenosylmethionine-8-amino-7-oxononanoate aminotransferase, sequence (P9WQ81 whole entry): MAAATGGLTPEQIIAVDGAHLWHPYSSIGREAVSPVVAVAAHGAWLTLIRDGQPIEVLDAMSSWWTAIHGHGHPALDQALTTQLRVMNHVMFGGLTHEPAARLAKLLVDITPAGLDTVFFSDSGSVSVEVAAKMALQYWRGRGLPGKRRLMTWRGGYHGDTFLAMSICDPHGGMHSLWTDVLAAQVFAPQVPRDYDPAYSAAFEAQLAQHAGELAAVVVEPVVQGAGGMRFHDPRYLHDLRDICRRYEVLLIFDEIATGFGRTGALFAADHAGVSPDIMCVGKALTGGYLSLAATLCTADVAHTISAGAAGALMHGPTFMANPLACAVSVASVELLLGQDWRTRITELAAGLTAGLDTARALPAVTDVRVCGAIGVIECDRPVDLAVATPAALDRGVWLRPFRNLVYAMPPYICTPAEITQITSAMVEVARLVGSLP

[10] = human group III sPLA2 inhibitors, dose response, biochemical, QFRET, IC50 (AID 743457);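 also: green fluorescence rise as the enzyme cleaves BODIPY PC-A2 in liposomes; potency for inhibition of the enzyme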
[11] = ARNT/TACC3 interaction disruptors, potency, confirmation, biochemical, AlphaScreen, cherry-picked samples (AID 651703); assay type: functional, Homo sapiens;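 also: His-tagged ARNT PAS-B domain paired with GST-TACC3 E629A dimer coactivator fragment; potency of inhibitors that break up the complex and lower AlphaScreen signal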
[12] = molecular target: Hepatocyte nuclear factor 4-alpha (Homo sapiens, UniProt P41235); assay type: functional, cell-based;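 also: biochemical luminescence-based dose-response counterscreen measuring inhibition of HNF4 dimerization, run alongside a screen for blockers of ABHD5–perilipin-5 interaction; split luciferase complementation of HNF4 fusion proteins in cell lysate measuring dimerization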
Beta-galactosidase = Beta-galactosidase (Escherichia coli, UniProt Q8VNN2); test: Dose response counterscreen for EBI2 assay utilizing the enzyme, b-galactosidase.; assay type: functional
Beta-galactosidase, sequence (Q8VNN2 whole entry): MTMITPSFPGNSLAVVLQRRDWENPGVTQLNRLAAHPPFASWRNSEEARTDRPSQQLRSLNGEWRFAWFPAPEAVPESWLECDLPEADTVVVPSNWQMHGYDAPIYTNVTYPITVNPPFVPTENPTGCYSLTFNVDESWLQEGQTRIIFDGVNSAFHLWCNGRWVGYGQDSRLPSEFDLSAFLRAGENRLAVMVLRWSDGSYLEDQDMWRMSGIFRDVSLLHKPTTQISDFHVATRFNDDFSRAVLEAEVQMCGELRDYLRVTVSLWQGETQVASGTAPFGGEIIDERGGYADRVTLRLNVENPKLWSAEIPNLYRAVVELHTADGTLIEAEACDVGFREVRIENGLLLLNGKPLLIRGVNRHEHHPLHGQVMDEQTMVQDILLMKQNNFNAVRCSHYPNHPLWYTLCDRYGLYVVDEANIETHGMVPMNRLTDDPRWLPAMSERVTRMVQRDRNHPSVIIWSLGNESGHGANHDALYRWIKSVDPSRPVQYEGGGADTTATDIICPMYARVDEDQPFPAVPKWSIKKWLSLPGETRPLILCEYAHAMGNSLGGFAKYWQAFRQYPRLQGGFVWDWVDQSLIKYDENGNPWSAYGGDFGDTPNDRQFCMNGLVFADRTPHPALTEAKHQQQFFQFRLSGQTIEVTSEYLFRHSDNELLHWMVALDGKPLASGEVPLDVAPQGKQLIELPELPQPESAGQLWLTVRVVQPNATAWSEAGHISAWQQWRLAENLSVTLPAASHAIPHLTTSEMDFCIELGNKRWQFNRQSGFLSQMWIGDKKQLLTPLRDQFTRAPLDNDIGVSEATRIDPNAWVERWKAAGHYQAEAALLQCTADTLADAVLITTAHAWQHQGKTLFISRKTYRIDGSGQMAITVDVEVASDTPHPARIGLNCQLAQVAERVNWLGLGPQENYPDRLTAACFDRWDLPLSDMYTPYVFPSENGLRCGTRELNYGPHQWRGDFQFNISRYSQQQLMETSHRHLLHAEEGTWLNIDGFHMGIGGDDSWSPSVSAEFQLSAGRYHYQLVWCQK

[13] = molecular target: Peroxisome proliferator-activated receptor gamma/Nuclear receptor coactivator 3 (Homo sapiens, UniProt P37231); test: TR-FRET dose response biochemical High Throughput Screening assay for agonists of the steroid receptor coactivator 3 (SRC-3) recruitment by the peroxisome proliferator-activated receptor gamma (PPAR gamma): non-selective agonists. [Related pubchem assays: 1301 (Confirmation screen.), 1048 (Primary screen.)]; assay type: functional
[14] = molecular target: Peroxisome proliferator-activated receptor gamma/Nuclear receptor coactivator 2 (Homo sapiens, UniProt P37231); test: (§1) TR-FRET dose response biochemical High Throughput Screening assay for agonists of the steroid receptor coactivator 2 (SRC-2) recruitment by the peroxisome proliferator-activated receptor gamma (PPAR gamma): non-selective agonists. [Related pubchem assays: 1297, 1032 ]; assay type: functional
[15] = molecular target: Peroxisome proliferator-activated receptor gamma/Nuclear receptor coactivator 1 (Homo sapiens, UniProt P37231); test: as §1, with “1 (SRC-1)” for “2 (SRC-2)”, “assays (depositor defined):AID1300, AID1808, AID504735, AID631]” for “assays: 1297, 1032 ]”; assay type: protein assay
[16] = Counterscreen for inhibitors of Trypanosoma brucei methionyl tRNA synthetase (MetRS): Luminescence-based cell-based high throughput dose response assay to identify compounds that are cytotoxic to Jurkat human T lymphocyte cells.; assay type: functional
[17] = molecular target: T1, Sentrin-specific protease 1 (Homo sapiens, UniProt Q9P0U3); test: potency of human SENP1 inhibitors, dose response, biochemical, kinetic FRET (AID 651697); assay type: functional; conditions: read-out: IC50_Mean
T1 sequence (Q9P0U3 whole entry): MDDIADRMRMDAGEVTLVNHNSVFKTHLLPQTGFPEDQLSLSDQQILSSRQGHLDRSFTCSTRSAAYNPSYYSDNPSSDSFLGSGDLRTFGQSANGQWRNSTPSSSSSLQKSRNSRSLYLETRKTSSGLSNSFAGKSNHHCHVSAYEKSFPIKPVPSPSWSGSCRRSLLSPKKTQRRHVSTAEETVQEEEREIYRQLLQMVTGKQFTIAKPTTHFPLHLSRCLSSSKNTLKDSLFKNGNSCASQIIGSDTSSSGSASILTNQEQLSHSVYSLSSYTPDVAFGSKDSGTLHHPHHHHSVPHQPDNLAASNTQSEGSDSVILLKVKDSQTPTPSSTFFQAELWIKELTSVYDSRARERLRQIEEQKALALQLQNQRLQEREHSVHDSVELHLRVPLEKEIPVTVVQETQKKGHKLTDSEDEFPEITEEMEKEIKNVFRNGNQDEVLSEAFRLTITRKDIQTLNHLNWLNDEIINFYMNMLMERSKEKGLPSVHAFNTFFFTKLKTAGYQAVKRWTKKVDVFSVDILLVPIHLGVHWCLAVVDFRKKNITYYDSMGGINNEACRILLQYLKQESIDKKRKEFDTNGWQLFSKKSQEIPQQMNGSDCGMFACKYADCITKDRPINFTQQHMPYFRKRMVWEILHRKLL

[18] = molecular target: T2, Endoribonuclease toxin MazF (Escherichia coli K-12, UniProt P0AE70); test: MazF toxin RNase activators, dose response, biochemical, fluorescence, single-stranded RNA substrate, uHTS hits (AID 588481); assay type: functional
T2 sequence (P0AE70 whole entry): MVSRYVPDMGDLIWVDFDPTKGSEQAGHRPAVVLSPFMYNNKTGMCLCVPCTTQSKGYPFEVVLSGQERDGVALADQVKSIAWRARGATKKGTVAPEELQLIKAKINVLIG

[19] = molecular target: T2, Endoribonuclease toxin MazF; test: fluorescent RNA oligo signal without MazF, dose response, counter-screen for MazEF activator project, biochemical, fluorescence, single-stranded RNase substrate (AID 588502); assay type: functional
[20] = molecular target: T1, Sentrin-specific protease 1; test: Dose response confirmation of small molecule inhibitors of the catalytic domain of the SUMO protease, SENP1 in a FRET assay.; assay type: functional; conditions: read-out: IC50_Mean
[21] = molecular target: T3, DNA repair and recombination protein RAD54-like (Homo sapiens, UniProt Q92698); test: inhibitors of human RAD54 branch migration, confirmation, biochemical, fluorescence, cherry-picked samples, dose series (AID 651657); assay type: functional
T3 sequence (Q92698 whole entry): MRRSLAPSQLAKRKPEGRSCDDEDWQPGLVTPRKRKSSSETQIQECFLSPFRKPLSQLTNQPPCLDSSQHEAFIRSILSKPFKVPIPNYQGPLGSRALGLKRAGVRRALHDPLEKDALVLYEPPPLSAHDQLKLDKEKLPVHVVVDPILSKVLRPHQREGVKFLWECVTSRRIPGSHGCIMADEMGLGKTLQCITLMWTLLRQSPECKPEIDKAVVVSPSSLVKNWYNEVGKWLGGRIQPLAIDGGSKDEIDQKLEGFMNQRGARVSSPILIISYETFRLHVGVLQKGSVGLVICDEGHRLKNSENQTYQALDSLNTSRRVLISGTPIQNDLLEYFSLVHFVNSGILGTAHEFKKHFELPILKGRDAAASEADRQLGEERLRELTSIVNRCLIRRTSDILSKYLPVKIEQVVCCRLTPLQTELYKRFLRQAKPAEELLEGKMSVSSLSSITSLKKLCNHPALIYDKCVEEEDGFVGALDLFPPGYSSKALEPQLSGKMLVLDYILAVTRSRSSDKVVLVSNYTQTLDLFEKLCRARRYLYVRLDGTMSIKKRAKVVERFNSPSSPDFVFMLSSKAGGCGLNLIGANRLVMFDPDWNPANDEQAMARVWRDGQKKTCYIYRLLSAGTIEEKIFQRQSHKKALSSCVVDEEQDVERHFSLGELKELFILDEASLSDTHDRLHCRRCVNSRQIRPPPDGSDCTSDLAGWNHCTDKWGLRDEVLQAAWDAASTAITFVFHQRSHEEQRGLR

Albumin = Albumin (Bos taurus, UniProt P02769); test: Counterscreen for inhibitors of T-cell receptor (TCR)-CD3 interaction: Fluorescence-based biochemical high throughput dose response assay to identify inhibitors of T-cell receptor (TCR)-CD3 interaction using a TAMRA-labeled BSA probe.; assay type: functional
Albumin, sequence (P02769 whole entry): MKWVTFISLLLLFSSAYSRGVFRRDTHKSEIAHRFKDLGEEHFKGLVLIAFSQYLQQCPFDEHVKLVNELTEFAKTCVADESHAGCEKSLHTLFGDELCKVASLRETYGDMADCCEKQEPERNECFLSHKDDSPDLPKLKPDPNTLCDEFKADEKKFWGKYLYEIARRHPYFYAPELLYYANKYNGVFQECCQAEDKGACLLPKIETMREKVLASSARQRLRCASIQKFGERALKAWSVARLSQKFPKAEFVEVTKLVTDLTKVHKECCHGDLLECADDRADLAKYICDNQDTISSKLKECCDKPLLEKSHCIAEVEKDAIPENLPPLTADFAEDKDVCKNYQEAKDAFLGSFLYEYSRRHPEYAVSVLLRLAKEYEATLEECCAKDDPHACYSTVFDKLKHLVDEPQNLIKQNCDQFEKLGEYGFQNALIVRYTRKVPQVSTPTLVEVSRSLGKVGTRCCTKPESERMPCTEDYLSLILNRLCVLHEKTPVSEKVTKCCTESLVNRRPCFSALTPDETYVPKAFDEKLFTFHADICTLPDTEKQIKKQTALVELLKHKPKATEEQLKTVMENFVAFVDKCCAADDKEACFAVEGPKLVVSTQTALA

SMILES: O=c1[nH]c2ccccc2nc1-c1cccs1
- EC50 [1]: > 91.1 µM (inactive)

SMILES: Oc1nc2ccccc2nc1-c1cccs1
- EC50 [2]: > 91.1 µM (inactive)

SMILES: CCCCn1c(NS(=O)(=O)c2ccc(C)cc2)c(C(=O)OCC)c2nc3ccccc3nc21
- IC50 [3]: > 128 µM (inactive)

SMILES: CC(C)CCN=C(S)Nc1ccc2nc3n(c(=O)c2c1)CCCCC3
- AC50 [4]: 39.4 µM (active)

SMILES: COC(=O)Nc1nnc(-c2ccccc2OC)s1
- IC50 [5]: 1.9 µM (active)

SMILES: Cc1ccc(-n2nc3c(N4CCC(C(=O)NCc5ccccc5C)CC4)nnc(C)c3c2C)cc1
- CC50 [6]: 27.8 µM (active)
- IC50 [7]: 8.76 µM (active)
- IC50 (Beta Lactamase): 16.2 µM (inactive)

SMILES: Cc1ccc(C2CC(C(F)(F)F)n3nc(C(=O)NCc4ccco4)cc3N2)cc1 (stereo not given)
- AC50 [8]: 1.94 µM (active)

SMILES: CSc1nc(N)c(C#N)c(-c2ccccc2Cl)c1C#N
- IC50 (Galanin receptor type 3): 7.09 µM (active)
- EC50 (cells): > 29.9 µM (inactive)

SMILES: COc1ccc(C(=O)Nc2cccc(NC(=O)c3cccs3)c2)cc1
- AC50 [9]: 4.26 µM (active)

SMILES: O=C(NNC(=S)Nc1ccc(Cl)cc1)c1ccccc1
- IC50 [10]: > 122 µM (inactive)

SMILES: NC(=O)c1cn(-c2ccccc2)nc1-c1cc2ccccc2oc1=O
- IC50 (Galanin receptor type 3): 13 µM (inactive)
- EC50 (cells): > 29.9 µM (inactive)

SMILES: CCCCCCNc1cc2n(c(=O)n1)CCc1cc(OC)c(OC)cc1-2
- AC50 [11]: 101 µM (active)

SMILES: COc1ccc(/C=C\C(=O)CC(O)(c2ccccc2)C(F)(F)F)cc1 (stereo not given)
- IC50 [12]: 3.93 µM (active)

SMILES: O=C(c1cc2ccccc2o1)N1CCN(S(=O)(=O)c2ccc(F)c(F)c2F)CC1
- IC50 (Beta-galactosidase): > 80 µM (inactive)

SMILES: CN1Cc2c(N3CCOCC3)nc3sc(C#N)c(N)c3c2CC1(C)C
- IC50 [5]: 1.06 µM (active)

SMILES: N#Cc1ccccc1CSc1ccc(-c2nc3ccccc3[nH]2)cn1
- EC50 [13]: > 79.4 µM (not active)
- EC50 [14]: > 79.4 µM (not active)
- EC50 [15]: > 79.4 µM (inactive)
- IC50 [16]: 26.5 µM (inactive)

SMILES: COc1ccc([C@H]2CC(=O)C=C(C#CC(C)(C)C)C2)cc1
- IC50 (Beta-galactosidase): > 80 µM (inactive)

SMILES: COc1ccc(CNC(=O)NCCc2c[nH]c3ccccc23)cc1
- AC50 [8]: 1.87 µM (active)

SMILES: O=C(Nc1cc(F)cc(F)c1)c1ccc(NCCc2ccccc2)c([N+](=O)[O-])c1
- IC50 [17]: 26.2 µM (inactive)
- EC50 [18]: > 99 µM (inactive)
- EC50 [19]: 88.4 µM (inactive)
- IC50 [20]: 14 µM (active)

SMILES: O=C(COC(=O)c1ccc(Cl)nc1)Nc1nnc(-c2ccccc2)o1
- AC50 [11]: 115 µM (active)

SMILES: Nc1ncnc2c1ncn2[C@@H]1O[C@H](CNCc2ccc(OCC(=O)Nc3nccs3)cc2)[C@@H](O)[C@H]1O
- AC50 [4]: 32.3 µM (active)

SMILES: CCN(CC)CCNc1ccc(CO)c2oc3ccccc3c(=O)c12
- IC50 [17]: 22.3 µM (inactive)
- AC50 [21]: 18.7 µM (active)
- IC50 [20]: 28.4 µM (inactive)

SMILES: CCn1c(=O)c(=O)n(CC)c2cc(S(=O)(=O)Nc3cc(C)ccc3C)ccc21
- AC50 [9]: 13.6 µM (active)

SMILES: CC(=O)c1cccc(-c2cnc3c(NC=O)cc(-c4ccc(N5CCN(C)CC5)cc4)cn23)c1
- EC50 [1]: > 30.4 µM (inactive)
- EC50 [2]: > 91.2 µM (inactive)

SMILES: CC(C)(C)NC(=O)C(c1ccccc1F)n1c(=O)c(-c2ccco2)nc2ccccc21 (stereo not given)
- IC50 [12]: 1.85 µM (active)

SMILES: Cc1c(C(=O)NNC(=O)c2ccccc2O)oc2ccccc12
- IC50 (Albumin): > 94 µM (inactive)

SMILES: C/N=C(\S)NNC(=O)c1cccn(Cc2cccc(Cl)c2)c1=O
- IC50 (Albumin): > 94.1 µM (inactive)
